From PMC12196251, “Synthesis of New DltA Inhibitors and Their Application as Adjuvant Antibiotics to Re-Sensitize Methicillin-Resistant Staphylococcus aureus” (Molecules, 2025)
pIC50: −log10 of the molar value. Where “and” joins values, the source holds several entries; their conditions need not be identical. Identical values can stand only once. Counter-ions that a name gives are not always drawn. Like-named read-outs stand apart in the source and are kept apart here. Values belong to the compound of their own block, whether it stands above or below them.

Experiments:
[1] = target: T1, recombinant DltA from E. faecalis (Enterococcus faecalis, UniProt Q830N0); experiment: DltA enzyme inhibition, PPi release coupled-enzyme assay; assay type: biochemical
T1 construct: made in house; host or cells: E. coli
T1 sequence (Q830N0 1-506): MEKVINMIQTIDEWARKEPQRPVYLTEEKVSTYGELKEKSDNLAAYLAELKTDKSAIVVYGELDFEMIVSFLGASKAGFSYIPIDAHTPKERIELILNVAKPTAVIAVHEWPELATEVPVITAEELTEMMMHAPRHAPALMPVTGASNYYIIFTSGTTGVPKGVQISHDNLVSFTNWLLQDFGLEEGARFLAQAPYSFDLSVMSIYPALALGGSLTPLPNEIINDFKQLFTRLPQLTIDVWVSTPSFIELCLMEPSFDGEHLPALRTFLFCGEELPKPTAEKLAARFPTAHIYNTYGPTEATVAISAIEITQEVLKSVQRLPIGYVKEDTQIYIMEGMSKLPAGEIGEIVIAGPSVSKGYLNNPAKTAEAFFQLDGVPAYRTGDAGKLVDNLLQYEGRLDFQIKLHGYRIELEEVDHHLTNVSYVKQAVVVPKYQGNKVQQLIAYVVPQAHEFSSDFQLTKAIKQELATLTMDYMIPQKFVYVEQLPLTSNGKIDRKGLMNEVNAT
Protocol: (§1) All new compounds were then evaluated in vitro for enzyme inhibition against recombinant DltA from E. faecalis or S. epidermis. Half-maximal inhibitory concentrations (IC50) were then determined by measuring the amount of PPi released at different inhibitor concentrations (Table 2). […] We noticed the DltA enzyme tolerated the presence of various modifications on the 2′-position, but the activity was inversely related to the size of the introduced group. […] Despite a good predicted binding affinity (−8.7 Kcal/mol), we hypothesize that the lower activity could be explained by the fact that the squaramide nitrogen atom might not be under its anionic form, as is the case with sulfamate 1.
(§2) The DltA-catalyzed ATP-hydrolysis reaction was monitored in vitro via PPi release (DltA +D-alanine +ATP → DltA-DAla-AMP +PPi) using a coupled-enzyme assay. The purified DltA was pretreated with DltC purified from E. coli to clear D-Ala-AMP already present in the enzyme preparation after expression in E. coli. Holo-DltC is the natural protein partner of DltA, and DltC purified from E. coli BL21 (DE3) contained 51% of this active form of DltC as determined by HPLC analysis. DltA was pretreated with DltC (ratio 1:1.2), incubated for 30 min at 37 °C and 30 min at 4 °C. Three successive washes were realized on Amicon Ultra-2 Centrifugal Filter Unit—Ultracel 30 membrane 30 kDa MWCO (Merck, Darmstadt, Germany) with elution buffer EB at 4 °C. The components of the coupled enzyme assay included 1.5 μM pre-treated DltA, 20 μM of ATP, and 14 μM of D-alanine. The half-maximal inhibitory concentration (IC50) of potential DltA inhibitors was determined by the addition of different concentrations of the synthesized molecules. PPi release was determined using the PiPer—Pyrophosphate assay kit (Invitrogen, Waltham, MA, USA) according to the recommendation of the supplier. Reactions were carried out in 96-well Chimney Style, non-binding Microplates with μClear Film Bottom (Greiner Bio-one, Frickenhausen, Germany). Plates were incubated at 37 °C for 5 h and read in a FlexStation 3 Multi-Mode plate reader (Molecular Devices, Silicon Valley, CA, USA), with λ excitation of 530 nm and λ emission of 590 nm. Experiments were conducted in sextuplicate, and the IC50 was determined by linear regression of the curve.

[2] = system: MRSA clinical isolates; experiment: MIC of imipenem against MRSA in absence or presence of DltA inhibitor; assay type: cell-based, S. aureus; conditions: for MIC: Staphylococcus aureus, MRSA
Protocol: (§3) All these compounds were also tested […] against MRSA clinical isolates. […] The minimum inhibitory concentrations (MICs) of imipenem (IPM) were next determined in the absence or presence of 1 mM of the different DltA inhibitors to evaluate their potential to re-sensitize MRSA to this β-lactam (Table 2). […] To clarify this hypothesis, quantification of D-alanyl ester of the MRSA cell wall was performed as previously described in the presence of inhibitors (Table 2). […] These new series represent a promising structure entry not reported yet for the inhibition of DltA and the re-sensitization of bacteria toward known antibiotics.
Colonies from BHI agar plates were suspended in saline solution (0.9% NaCl) and adjusted to an OD600 of 0.5. For growth kinetics determination, 96-well microplates (Starlab, Orsay, France) containing 200 μL of fresh BHI medium were inoculated with bacterial suspensions to an OD600 of 0.02 with a wide range of DltA inhibitors (from 0 to 2 mM). Plates were incubated at 37 °C with shaking (orbital amplitude of 3 mm) in a microplate reader (InfiniteM Nano, Tecan, Seoul, Republic of Korean). OD600nm was measured every 10 min for 24 h. Determination of MIC/MBC of antibiotics and bacterial survival assays were performed as previously described using BHI medium. The DltA inhibitor was diluted in pure water and added to the growth medium to a final concentration of 0, 0.1, 0.25, 0.5, 0.75, or 1 mM.

[3] = system: D-alanyl ester of the MRSA cell wall; experiment: Quantification of D-alanyl ester in the bacterial cell wall; assay type: cell-based, S. aureus; conditions: inhibitor at 1 mM, value (spread)
Protocol: as §3
Ester-linked D-alanines were quantified as described previously, with the following modifications. Cultures were grown in 5 mL of BHI supplemented with DltA inhibitor to a final concentration of 0.05, 0.1, 0.25, 0.5, 0.75, or 1 mM for 16 h at 37 °C under shaking (120 rpm). Briefly, the quantification is based on the oxidation of a chromogen by H2O2 generated when free D-alanines are oxidized by a D-amino acid oxidase. Three independent experiments with duplicate samples were performed.

[4] = target: T2, recombinant DltA from S. epidermidis (Staphylococcus epidermidis, UniProt Q5HQN0); experiment: DltA enzyme inhibition, PPi release coupled-enzyme assay; assay type: biochemical
T2 construct: made in house; host or cells: E. coli
T2 sequence (Q5HQN0 1-485): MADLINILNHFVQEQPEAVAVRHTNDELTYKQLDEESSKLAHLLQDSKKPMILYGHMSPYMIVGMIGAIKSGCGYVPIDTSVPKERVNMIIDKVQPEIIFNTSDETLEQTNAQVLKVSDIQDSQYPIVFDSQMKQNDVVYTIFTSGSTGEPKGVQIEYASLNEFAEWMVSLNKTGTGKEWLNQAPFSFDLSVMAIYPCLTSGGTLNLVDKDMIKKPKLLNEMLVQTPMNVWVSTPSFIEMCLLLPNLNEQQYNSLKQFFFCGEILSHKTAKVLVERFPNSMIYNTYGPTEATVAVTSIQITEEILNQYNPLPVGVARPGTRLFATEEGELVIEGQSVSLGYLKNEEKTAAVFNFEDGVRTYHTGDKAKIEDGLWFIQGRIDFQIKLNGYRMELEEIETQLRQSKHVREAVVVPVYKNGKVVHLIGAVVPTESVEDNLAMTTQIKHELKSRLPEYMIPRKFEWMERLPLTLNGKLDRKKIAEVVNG
Protocol: as §1, §2

[5] = S. aureus (MRSA), in presence of 1 mM of the DltA inhibitor, read-out: MIC of IPM
[6] = S. aureus (MRSA), in presence of 1 mM of the DltA inhibitor

SMILES: C[C@@H](N)C(=O)NS(=O)(=O)OC[C@H]1O[C@@H](n2cnc3c(N)ncnc32)[C@H](F)[C@@H]1O [Compound 8, ((2R,3R,4R,5R)-5-(6-amino-9H-purin-9-yl)-4-fluoro-3-hydroxytetrahydrofuran-2-yl)methyl (D-alanyl)sulfamate salt]
pIC50 [1]: 5.59 | MIC [2, 5]: 16 µg/mL | Reduction in D-Ala Ester Residues [3]: 0%

SMILES: C[C@@H](N)C(=O)NS(=O)(=O)OC[C@H]1O[C@@H](n2cnc3c(N)ncnc32)[C@@H](N=[N+]=[N-])[C@@H]1O [Compound 9, ((2R,3S,4S,5R)-5-(6-amino-9H-purin-9-yl)-4-azido-3-hydroxytetrahydrofuran-2-yl)methyl (D-alanyl)sulfamate salt]
pIC50 [1]: 5.42 | MIC [2, 5]: 8 µg/mL | Reduction in D-Ala Ester Residues [3]: 74.9% and 74.9 (9.4) %

SMILES: C[C@@H](N)C(=O)Nc1c(NC[C@H]2O[C@@H](n3cnc4c(N)ncnc43)[C@H](O)[C@@H]2O)c(=O)c1=O [Compound 23, 5′-N-(N-D-alanyl]-(3-amino-cyclobut-3-ene-1,2-dione))aminodeoxy adenosine salt]
pIC50 [1]: 4.55 | Reduction in D-Ala Ester Residues [3]: 11.5 (1.3) %

SMILES: CCCCCCC(=O)N[C@H](C)C(=O)c1cn(C[C@H]2O[C@@H](n3cnc4c(N)ncnc43)[C@H](O)[C@@H]2O)nn1 [Compound 51, N-((R)-1-(1-(((2R,3S,4R,5R)-5-(6-amino-9H-purin-9-yl)-3,4-dihydroxytetrahydrofuran-2-yl)methyl)-1H-1,2,3-triazol-4-yl)-1-oxopropan-2-yl)heptanamide salt]
pIC50 [4]: 4.65 | MIC of IPM [2, 6]: 16 µg/mL | MIC [2, 5]: 16 to 64 µg/mL | Reduction in D-Ala Ester Residues [3]: 22.2 (5.0) %

MIC ([2]; tested MRSA strain, no inhibitor, read-out: MIC of IPM in the absence of an inhibitor): 32 µg/mL
SMILES: C[C@@H](O)[C@H]1C(=O)N2C(C(=O)O)=C(SCCN=CN)C[C@H]12 [IPM, imipenem, reference compound]

SMILES: CC(C)OP(=O)(OC(C)C)C(F)(F)/C=C/CO[C@@H]1[C@H](O)[C@@H](COS(=O)(=O)NC(=O)[C@@H](C)N)O[C@H]1n1cnc2c(N)ncnc21 [Compound 18, ((2R,3R,4R,5R)-5-(6-amino-9H-purin-9-yl)-4-(((E)-4-(diisopropoxyphosphoryl)-4,4-difluorobut-2-en-1-yl)oxy)-3-hydroxytetrahydrofuran-2-yl)methyl (D-alanyl)sulfamate salt]
pIC50 [4]: 5.12 | MIC ([2]; read-out: MIC of IPM, S. aureus (MRSA), in presence of 1 mM of the DltA inhibitor): 0.25 µg/mL | Reduction in D-Ala Ester Residues [3]: 51.5% and 51.5 (14.2) %

SMILES: C[C@@H](NC(=O)c1ccc(-c2ccccc2)cc1)C(=O)c1cn(C[C@H]2O[C@@H](n3cnc4c(N)ncnc43)[C@H](O)[C@@H]2O)nn1 [Compound 52, N-((R)-1-(1-(((2R,3S,4R,5R)-5-(6-amino-9H-purin-9-yl)-3,4-dihydroxytetrahydrofuran-2-yl)methyl)-1H-1,2,3-triazol-4-yl)-1-oxopropan-2-yl)-[1,1′-biphenyl]-4-carboxamide salt]
pIC50 [4]: 4.91 | MIC [2, 5]: 8 µg/mL | Reduction in D-Ala Ester Residues [3]: 16% and 16.0 (4.2) %

SMILES: CCCCCCOc1ccc(C(=O)N[C@H](C)C(=O)c2cn(C[C@H]3O[C@@H](n4cnc5c(N)ncnc54)[C@H](O)[C@@H]3O)nn2)cc1 [Compound 53, N-((R)-1-(1-(((2R,3S,4R,5R)-5-(6-amino-9H-purin-9-yl)-3,4-dihydroxytetrahydrofuran-2-yl)methyl)-1H-1,2,3-triazol-4-yl)-1-oxopropan-2-yl)-4-(hexyloxy)benzamide salt]
pIC50 [4]: 4.80 | MIC of IPM [2, 6]: 16 µg/mL | MIC [2, 5]: 16 to 64 µg/mL | Reduction in D-Ala Ester Residues [3]: 12.5 (14.0) %

SMILES: C[C@@H](NC(=O)OCc1ccc([N+](=O)[O-])cc1)C(=O)c1cn(C[C@H]2O[C@@H](n3cnc4c(N)ncnc43)[C@H](O)[C@@H]2O)nn1 [Compound 54, 4-nitrobenzyl ((R)-1-(1-(((2R,3S,4R,5R)-5-(6-amino-9H-purin-9-yl)-3,4-dihydroxytetrahydrofuran-2-yl)methyl)-1H-1,2,3-triazol-4-yl)-1-oxopropan-2-yl)carbamate salt]
pIC50 [4]: 4.66 | MIC of IPM [2, 6]: 16 µg/mL | MIC [2, 5]: 16 to 64 µg/mL | Reduction in D-Ala Ester Residues [3]: 0%

SMILES: C[C@@H](N)C(=O)NS(=O)(=O)NC/C(CF)=C(\F)Cn1cnc2c(N)ncnc21 [Compound 38, (R,E)-2-amino-N-(N-(4-(6-amino-9H-purin-9-yl)-3-fluoro-2-(fluoromethyl)but-2-en-1-yl)sulfamoyl)propenamide salt]
pIC50 [4]: < 4.00 | IC50 ([4]; Dlt from S. epidermidis, PPi release, value (spread)): complete loss of the activity | MIC of IPM [2, 6]: 32 µg/mL | MIC [2, 5]: 16 to 64 µg/mL | Reduction in D-Ala Ester Residues [3]: 2%

SMILES: C[C@@H](N)C(=O)NS(=O)(=O)OC[C@H]1O[C@@H](n2cnc3c(N)ncnc32)[C@H](n2cc(CO[C@@H]3O[C@H](CO)[C@@H](O)[C@H](O)[C@H]3O)nn2)[C@@H]1O [Compound 11, ((2R,3S,4R,5R)-5-(6-amino-9H-purin-9-yl)-3-hydroxy-4-(4-((((2R,3R,4S,5S,6R)-3,4,5-trihydroxy-6-(hydroxymethyl)tetrahydro-2H-pyran-2-yl)oxy)methyl)-1H-1,2,3-triazol-1-yl)tetrahydrofuran-2-yl)methyl (D-alanyl)sulfamate salt]
pIC50 [4]: 4.40 | MIC of IPM [2, 6]: 32 µg/mL | MIC [2, 5]: 16 to 64 µg/mL | Reduction in D-Ala Ester Residues [3]: 0%
